Among the data in ChEMBL document CHEMBL1147579, “Design, synthesis and evaluation of novel 1,4-naphthoquinone derivatives as antifungal and anticancer agents” (2004) are MIC, T/C and Survivors values, retold here.

Experiment [1] deals with Aspergillus fumigatus. The experiment can be described thus: Antifungal activity against Aspergillus fumigatus. It counts as functional.
Experiment [2] has as its system Candida albicans. As to the kind of experiment: Antifungal activity against Candida albicans. Type of experiment: functional.
Experiment [3] has as its system Cryptococcus neoformans. As to the kind of experiment: Antifungal activity against Cryptococcus neoformans. Type of experiment: functional.
Experiment [4] in a line: Antifungal activity against Trichophyton mentagrophytes. Type of experiment: functional, Trichophyton mentagraphytes. The note with it: Trichophyton benhamiae.
Experiment [5] concerns Microsporum canis. The experiment can be described thus: Antifungal activity against Microsporum canis. Type of experiment: functional.
Experiment [6] relates to Rattus norvegicus. As to the kind of experiment: Anticancer activity against Walker 256 carcinoma in rat after administration of 10 mg/kg; Activity expressed as % T/C (Active). It counts as functional.
The test system of experiment [7] is Rattus norvegicus. The experiment can be described thus: Anticancer activity against Walker 256 carcinoma cells in rat after administration of 10 mg/kg; Activity expressed as survivors out of 4 rats (Active). It counts as functional.
Experiment [8] has as its system Tolypocladium inflatum. The experiment can be described thus: Antifungal activity against Sporotrichum schenckii. It counts as functional. The conditions noted are these: sporotrichum scenckii.
Experiment [9] has as its system Cryptococcus neoformans. The experiment can be described thus: Antifungal activity against C. neoformans; No activity. Type of experiment: functional.
In experiment [10] the test system is Sporothrix schenckii. The experiment can be described thus: Antifungal activity against Sporotrichum schenckii.

≈ marks a conversion by molar mass, not a printed value.

Turning to `Clc1ccc(COC(Cn2ccnc2)c2ccc(Cl)cc2Cl)c(Cl)c1` (stereo unspecified) [MICONAZOLE], the MIC (as a rule, the smallest concentration in the dilution series that meets the test's criterion for growth inhibition) in experiment [1] is 12.5 µg/mL (≈ 30 µM); in experiment [2] it was 25 µg/mL (≈ 60.1 µM); in [3] it was 12.5 µg/mL (≈ 30 µM); in experiment [4] it was no more than 0.78 µg/mL; in experiment [5], no more than 0.78 µg/mL.
Consider `O=C1c2sc3nccn3c2C(=O)c2c(Cl)ccc(O)c21`, for which the MIC came to 3.1 µg/mL (≈ 10.2 µM) in experiment [1]; 25 µg/mL (≈ 82 µM) in experiment [2]; 6.25 µg/mL (≈ 20.5 µM) in [3]; 6.25 µg/mL (≈ 20.5 µM) in experiment [4]; 6.25 µg/mL (≈ 20.5 µM) in experiment [5].
Regarding `C[C@@H]1[C@H](O)[C@@H](C)/C=C/C=C/C=C/C=C/C=C/C=C/C=C/[C@H](O[C@@H]2O[C@H](C)[C@@H](O)[C@H](N)[C@@H]2O)C[C@@H]2O[C@](O)(C[C@@H](O)C[C@@H](O)[C@H](O)CC[C@@H](O)C[C@@H](O)CC(=O)O[C@H]1C)C[C@H](O)[C@H]2C(=O)O` [AMPHOTERICIN B], the minimum inhibitory concentration (MIC) in experiment [2] was determined as 0.39 µg/mL (≈ 0.422 µM); in experiment [3] it was 0.78 µg/mL (≈ 0.844 µM); in [4] it was 1.56 µg/mL (≈ 1.69 µM); in experiment [5], 1.56 µg/mL (≈ 1.69 µM).
For `O=C1C=C(Sc2ccccc2)C(=O)c2ccccc21`, the minimum inhibitory concentration (MIC) is 25 µg/mL (≈ 93.9 µM) in experiment [1]; 12.5 µg/mL (≈ 46.9 µM) in experiment [2]; 1.56 µg/mL (≈ 5.86 µM) in experiment [3]; less than 0.78 µg/mL in experiment [4]; less than 0.98 µg/mL in experiment [5].
For the molecule `O=C1C=CC(=O)c2c(O)ccc(O)c21` [NAPHTHAZALIN], the T/C (usually the result in the treated group divided by that in the control group, in per cent) in [6] was determined as 37%. This molecule returned a Survivors in experiment [7] of 3 µg/mL.
As for NYSTATIN, the values for the MIC in [2], in experiment [3] and in experiment [8] were 7.9 µg/mL, 3.9 µg/mL and 13.2 µg/mL, respectively.
As for `O=C(O)CCSC1=CC(=O)c2c(O)ccc(O)c2C1=O`, the minimal inhibitory concentration (MIC) was 3.12 µg/mL (≈ 10.6 µM) in [2], 1.56 µg/mL (≈ 5.3 µM) in [9], 3.12 µg/mL (≈ 10.6 µM) in [4] and 3.12 µg/mL (≈ 10.6 µM) in [5].
On to `O=C1c2ccccc2C(=O)c2c1sc1nccn21`, for which the minimum inhibitory concentration (MIC) stood at 25 µg/mL (≈ 98.3 µM) in experiment [1]; 50 µg/mL (≈ 197 µM) in experiment [2]; 12.5 µg/mL (≈ 49.2 µM) in [3]; 25 µg/mL (≈ 98.3 µM) in [4]; 25 µg/mL (≈ 98.3 µM) in experiment [5]; 25 µg/mL (≈ 98.3 µM) in experiment [10].
`CC1=CC(=O)c2c(O)ccc(O)c2C1=O`: in [6], the T/C amounted to 23%. The Survivors in [7] is 4.
In the case of `O=C1C(CO)=C(Sc2ccccc2)C(=O)c2ccccc21`, the MIC in [1] is less than 0.78 µg/mL; in experiment [2], 25 µg/mL (≈ 84.4 µM); in [3], 1.56 µg/mL (≈ 5.26 µM); in experiment [4] it was 1.56 µg/mL (≈ 5.26 µM); in experiment [5], 1.56 µg/mL (≈ 5.26 µM).
Turning to `O=C1c2sc3nccn3c2C(=O)c2c(O)ccc(O)c21`, the MIC is 25 µg/mL (≈ 87.3 µM) in [2]; less than 12.5 µg/mL in experiment [3]; 25 µg/mL (≈ 87.3 µM) in experiment [4]; 25 µg/mL (≈ 87.3 µM) in [5]; less than 12.5 µg/mL in [10].
